From US11214594B2, “Antimicrobial peptide having synergistic antibacterial effect with antibiotics on multidrug resistant bacteria, and use thereof” (priority 2016, dated 2022)
Values after ≈ are worked out from the molar mass of the structure shown. Where a SMILES comes first, the peptide text is derived from it.

Tests used:
MDREC 1238 = assay type: cell-based, Escherichia coli
Outline: (§1)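 Broth microdilution in MH medium: strains diluted to 2×10^6 CFU were mixed with equal volumes of twofold serial peptide dilutions in MH medium. MIC was taken as the lowest peptide concentration preventing bacterial growth.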

P. aeruginosa = assay: microbe, parasite or virus in culture; assay type: cell-based, Pseudomonas aeruginosa
Outline: as §1

MDRPA 2002 = assay type: cell-based, Pseudomonas aeruginosa
Outline: as §1

MDRPA 2003 = assay type: cell-based, Pseudomonas aeruginosa
Outline: as §1

A. baumannii = assay: microbe, parasite or virus in culture; assay type: cell-based, Acinetobacter baumannii
Outline: as §1

MDRAB 12035 [1] = assay: microbe, parasite or virus in culture; assay type: cell-based, Acinetobacter baumannii
Outline: as §1

MDRAB 12036 = assay type: cell-based, Acinetobacter baumannii
Outline: as §1

S. typhimurium = assay: microbe, parasite or virus in culture; assay type: cell-based, Salmonella typhimurium
Outline: as §1

MDRST 8007 = assay: Minimal inhibitory concentration (MIC), single agent; assay type: cell-based, Salmonella typhimurium; settings: agent alone
Outline: as §1

B. subtilis = assay: microbe, parasite or virus in culture; assay type: cell-based, Bacillus subtilis
Outline: as §1

S. epidermidis = assay: microbe, parasite or virus in culture; assay type: cell-based, Staphylococcus epidermidis
Outline: as §1

S. aureus = assay: microbe, parasite or virus in culture; assay type: cell-based, Staphylococcus aureus
Outline: as §1

MRSA 3114 = assay type: cell-based, Staphylococcus aureus; settings: 3114
Outline: as §1

MRSA 3126 = assay type: cell-based, Staphylococcus aureus; settings: 3126
Outline: as §1

MDREC 1229 = assay: MIC of antibiotic during combined treatment with antimicrobial peptide; assay type: cell-based, Escherichia coli
Outline: (§2)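 Strains in MH medium at 2×10^6 CFU/ml were mixed with peptide diluted stepwise (2:1) from its MIC, then antibiotic dilutions in MH medium were added to give the antibiotic MIC. The reversed set-up, peptide titrated against fixed antibiotic, gave the peptide MIC.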

MDRAB 12035 [2] = assay: as above; assay type: cell-based, Acinetobacter baumannii
Outline: as §2

[3] = peptide treatment concentration 1 μg/ml
[4] = peptide treatment concentration 2 μg/ml
[5] = peptide treatment concentration 4 μg/ml
[6] = peptide treatment concentration 6 μg/ml
[7] = peptide treatment concentration 8 μg/ml
[8] = peptide treatment concentration 16 μg/ml
[9] = peptide treatment concentration 32 μg/ml
[10] = peptide treatment concentration 64 μg/ml

CC[C@H](C)[C@H](NC(=O)[C@H](CCCCN)NC(=O)[C@H](Cc1c[nH]c2ccccc12)NC(=O)[C@@H](N)CCCNC(=N)N)C(=O)N[C@@H](Cc1ccccc1)C(=O)N[C@@H](CCCCN)C(=O)N[C@@H](CCCCN)C(=O)N[C@H](C(=O)N1CCC[C@H]1C(=O)N[C@@H](CCCCN)C(=O)N[C@@H](Cc1ccccc1)C(=O)N[C@@H](CC(C)C)C(=O)N[C@@H](Cc1c[nH]cn1)C(=O)N[C@@H](CCC(=O)O)C(=O)N[C@@H](C)C(=O)N[C@@H](CCCCN)C(=O)N[C@@H](CCCCN)C(=O)N[C@@H](Cc1c[nH]c2ccccc12)C(N)=O)[C@@H](C)CC [PapMA-14, RWK IFK KIP KFL HEA KKW-NH2] (H-RWKIFKKIPKFLHEAKKW-NH2; N-terminus assumed)
Minimal inhibitory concentration MIC (MDREC 1238): 16 µg/mL (≈ 6.71 µM) | Minimal inhibitory concentration MIC (P. aeruginosa): 64 µg/mL (≈ 26.9 µM) | Minimal inhibitory concentration MIC (MDRPA 2002): 64 µg/mL (≈ 26.9 µM) | Minimal inhibitory concentration MIC (MDRPA 2003): 64 µg/mL (≈ 26.9 µM) | Minimal inhibitory concentration MIC (A. baumannii): 16 µg/mL (≈ 6.71 µM) | Peptide MIC, peptide alone (A. baumannii): 16 µg/mL | Antibacterial activity relative to PapMA-1 (A. baumannii; A. baumannii and S. typhimurium): at least twice as high | Minimal inhibitory concentration MIC (MDRAB 12035 [1]): 16 µg/mL (≈ 6.71 µM) | Peptide MIC, peptide alone (MDRAB 12035 [1]): 16 µg/mL | Minimal inhibitory concentration MIC (MDRAB 12036): 16 µg/mL (≈ 6.71 µM) | Minimal inhibitory concentration MIC (S. typhimurium): 16 µg/mL (≈ 6.71 µM) | Minimal inhibitory concentration MIC (MDRST 8007): 16 µg/mL (≈ 6.71 µM) | Minimal inhibitory concentration MIC (B. subtilis): >128 µg/mL | Minimal inhibitory concentration MIC (S. epidermidis): >128 µg/mL | Minimal inhibitory concentration MIC (S. aureus): >128 µg/mL | Minimal inhibitory concentration MIC (MRSA 3114): >128 µg/mL | Minimal inhibitory concentration MIC (MRSA 3126): >128 µg/mL | Antibiotic MIC, Erythromycin (MDREC 1229; [3]): 128 µg/mL | Antibiotic MIC, Linezolid (MDREC 1229; [3]): >128 µg/mL | Antibiotic MIC, Vancomycin (MDREC 1229; [3]): >128 µg/mL | Antibiotic MIC, Erythromycin (MDREC 1229; [4]): 32 µg/mL | Antibiotic MIC, Linezolid (MDREC 1229; [4]): 128 µg/mL | Antibiotic MIC, Vancomycin (MDREC 1229; [4]): >128 µg/mL | Antibiotic MIC, Erythromycin (MDREC 1229; [5]): 8 µg/mL | Antibiotic MIC, Linezolid (MDREC 1229; [5]): 32 µg/mL | Antibiotic MIC, Vancomycin (MDREC 1229; [5]): 128 µg/mL | Antibiotic MIC, Erythromycin (MDREC 1229; [6]): 4 µg/mL | Antibiotic MIC, Linezolid (MDREC 1229; [6]): 16 µg/mL | Antibiotic MIC, Vancomycin (MDREC 1229; [6]): 32 µg/mL | Antibiotic MIC, Erythromycin (MDREC 1229; [7]): 1 µg/mL | Antibiotic MIC, Linezolid (MDREC 1229; [7]): 16 µg/mL | Antibiotic MIC, Vancomycin (MDREC 1229; [7]): 8 µg/mL | Antibiotic MIC, Erythromycin (MDREC 1229; [8]): 0 µg/mL | Antibiotic MIC, Linezolid (MDREC 1229; [8]): 0 µg/mL | Antibiotic MIC, Vancomycin (MDREC 1229; [8]): 0 µg/mL | Antibiotic MIC, Erythromycin (MDREC 1229; [9]): 0 µg/mL | Antibiotic MIC, Linezolid (MDREC 1229; [9]): 0 µg/mL | Antibiotic MIC, Vancomycin (MDREC 1229; [9]): 0 µg/mL | Antibiotic MIC, Erythromycin (MDREC 1229; [10]): 0 µg/mL | Antibiotic MIC, Linezolid (MDREC 1229; [10]): 0 µg/mL | Antibiotic MIC, Vancomycin (MDREC 1229; [10]): 0 µg/mL | Erythromycin MIC during combined treatment with peptide (MDRAB 12035 [2]; [3]): 16 µg/mL | Linezolid MIC during combined treatment with peptide (MDRAB 12035 [2]; [3]): 128 µg/mL | Vancomycin MIC during combined treatment with peptide (MDRAB 12035 [2]; [3]): >128 µg/mL | Erythromycin MIC during combined treatment with peptide (MDRAB 12035 [2]; [4]): 8 µg/mL | Linezolid MIC during combined treatment with peptide (MDRAB 12035 [2]; [4]): 64 µg/mL | Vancomycin MIC during combined treatment with peptide (MDRAB 12035 [2]; [4]): 64 µg/mL | Erythromycin MIC during combined treatment with peptide (MDRAB 12035 [2]; [5]): 4 µg/mL | Linezolid MIC during combined treatment with peptide (MDRAB 12035 [2]; [5]): 16 µg/mL | Vancomycin MIC during combined treatment with peptide (MDRAB 12035 [2]; [5]): 16 µg/mL | Erythromycin MIC during combined treatment with peptide (MDRAB 12035 [2]; [6]): 1 µg/mL | Linezolid MIC during combined treatment with peptide (MDRAB 12035 [2]; [6]): 4 µg/mL
